One may read the IC50 as the concentration that inhibits the measured activity by half.

Chain of human recombinant DGK ξ (Q13574 whole entry): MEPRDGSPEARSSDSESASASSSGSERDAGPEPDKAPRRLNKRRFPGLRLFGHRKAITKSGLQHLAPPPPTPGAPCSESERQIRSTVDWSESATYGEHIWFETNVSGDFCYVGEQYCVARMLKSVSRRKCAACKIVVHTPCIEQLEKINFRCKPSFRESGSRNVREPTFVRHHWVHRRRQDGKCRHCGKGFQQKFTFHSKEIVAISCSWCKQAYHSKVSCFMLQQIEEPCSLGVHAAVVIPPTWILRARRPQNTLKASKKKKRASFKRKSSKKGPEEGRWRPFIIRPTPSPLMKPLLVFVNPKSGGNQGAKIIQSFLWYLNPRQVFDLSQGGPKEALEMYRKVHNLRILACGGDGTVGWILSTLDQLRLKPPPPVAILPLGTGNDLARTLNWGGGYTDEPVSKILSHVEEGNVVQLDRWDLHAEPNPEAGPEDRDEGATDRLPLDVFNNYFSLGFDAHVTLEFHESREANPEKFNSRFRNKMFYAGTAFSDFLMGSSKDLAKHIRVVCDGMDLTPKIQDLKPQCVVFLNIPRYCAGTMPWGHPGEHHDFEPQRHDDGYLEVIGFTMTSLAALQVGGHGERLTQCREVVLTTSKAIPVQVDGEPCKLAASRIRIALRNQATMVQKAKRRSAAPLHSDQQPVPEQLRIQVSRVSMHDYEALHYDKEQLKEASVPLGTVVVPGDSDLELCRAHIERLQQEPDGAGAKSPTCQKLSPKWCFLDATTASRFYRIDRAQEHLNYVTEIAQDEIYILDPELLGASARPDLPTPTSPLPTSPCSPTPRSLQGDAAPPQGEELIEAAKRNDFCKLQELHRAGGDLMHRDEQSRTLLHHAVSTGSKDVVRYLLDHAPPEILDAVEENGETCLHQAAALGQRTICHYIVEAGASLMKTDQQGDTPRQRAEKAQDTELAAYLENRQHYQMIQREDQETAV

The target of this experiment is human recombinant DGK ξ (Homo sapiens (Human), UniProt Q13574). Put plainly: Evaluation of DGK ξ inhibitory effect (ADP-Glo Kinase Assay). The format is biochemical. Particulars: ADP-Glo luminescence. The procedure:
Test Example 1. Evaluation of DGK ξ Inhibitory Effect
The inhibitory effect of a test compound on human recombinant DGK ξ (Cama Biosciences, Inc., 12-410-20N) was examined by the following method in which detection is performed with ADP-Glo™ Kinase Assay (Promega Corporation).
To a 384-well plate (Greiner Bio-One Co., Ltd.), 3 μL of a DGK ξ enzyme dissolved in an assay buffer (40 mM Tris-HCl pH 7.5, 10 mM MgCl2, 1 mM dithiothreitol (DTT) and 0.1 mg/mL bovine serum albumin (BSA)) (90 ng/mL) was added, and 3 μL of the test compound diluted with the same assay buffer was added so that an intended final concentration was obtained. The mixture was left standing at room temperature for 15 minutes, 3 μL of a substrate (150 μM 1-oleoyl-2-acetyl-sn-glycerol (Sigma-Aldrich Co. LLC), 480 μM phosphatidylserine (Avanti, Inc.) and 150 μM UltraPure-ATP (attached to ADP-Glo)) was then added, and the mixture was left standing at room temperature for 30 minutes to react. Thereafter, 3 μL of an ADP-Glo Reagent was added, and the mixture was left standing at room temperature for 40 minutes to stop the enzyme reaction. Further, 6 μL of a Kinase-Detection Reagent was added, the mixture was left standing at room temperature for 30 minutes, and the luminescence was then measured using ARVO X3 (PerkinElmer, Inc.). The half maximal inhibitory concentration (IC50) was calculated by Sigmoid-Emax model non-linear regression analysis, where the signal value in solvent treatment was set to 0% inhibition and the signal value without addition of the DGK ξ enzyme was set to 100% inhibition. […] In the table. Ex represents the number of each Example described below.
Background: In ADP-Glo the light output rises with the ADP produced.
As to `NC[C@@H]1CCCN(c2c(NC(=O)c3ccn(CC(F)F)n3)ccc(Oc3ccccc3Cl)c2C(F)(F)F)C1` [Example 9], the half-inhibitory concentration (IC50) amounted to 9.3 nM.

Turning to `CNC[C@H]1CN(c2c(NC(=O)c3ccn(-c4ccnnc4)n3)cc(F)c(Oc3ccccc3)c2F)CCN1C` [Example 108], the IC50 came out at 8.9 nM. Then `CNC[C@H]1CN(c2c(NC(=O)c3cnn(-c4ccnnc4)n3)ccc(Oc3ccccc3Cl)c2C(F)(F)F)CCN1C` [Example 97], with 12 nM.

Regarding `NCCOc1cc(-c2c(NC(=O)c3coc(-c4ccnnc4)n3)ccc(OC3CC3)c2C(F)(F)F)ccn1` [Example 68], the IC50 was 24 nM.

Consider `CN(C)[C@@H]1CCN2CCN(c3c(NC(=O)c4coc(-c5ccnnc5)n4)ccc(OC4CC4)c3C(F)(F)F)C[C@@H]12` [Example 119], for which the IC50 stood at 41 nM.

With `CNC[C@H]1CN(c2c(NC(=O)c3ccn(-c4ccnnc4)n3)ccc(Oc3ccc(F)cc3)c2C(F)(F)F)CCN1C` [Example 101], the half-inhibitory concentration (IC50) is 69 nM.

Take `CNC[C@H]1CN(c2c(NC(=O)c3ccn(-c4ccnnc4)n3)ccc(Oc3ccccc3F)c2Cl)CCN1C` [Example 125]: the IC50 was 1.8 nM. With `CN1CCN(c2c(NC(=O)c3ccn(-c4ccnnc4)n3)ccc(OC3CCCC3)c2C(F)(F)F)C[C@@H]1CN` [Example 40] the figure was 5.2 nM; with `CNC[C@H]1CN(c2c(NC(=O)c3ccn(CC(F)F)n3)ccc(Oc3ccccc3Cl)c2C(F)(F)F)CCN1C` [Example 24], 36 nM; with `CNC[C@H]1CN(c2c(NC(=O)c3coc(-c4ccnnc4)n3)cc(F)c(Oc3ccccc3)c2F)CCN1C` [Example 106], 7.5 nM. For `NC[C@@H]1CCCN(c2c(NC(=O)c3ccn(-c4ccnnc4)n3)ccc(Oc3ccccc3)c2C(F)(F)F)C1` [Example 31], the half-maximal inhibitory concentration (IC50) was 23 nM. Then `CN1CCN(c2c(NC(=O)c3ccn(-c4ccnnc4)n3)ccc(Oc3ccccc3Cl)c2C(F)(F)F)C[C@@H]1CN` [Example 46], with 3.1 nM; and `CNCCOc1cccc(-c2c(NC(=O)c3coc(-c4ccnnc4)n3)ccc(OC3CC3)c2C(F)(F)F)c1` [Example 66], with 180 nM. With `CNC[C@H]1CN(c2c(NC(=O)c3ccn(-c4ccnnc4)n3)ccc(-c3ccccc3F)c2C(F)(F)F)CCN1C` [Example 59] the figure was 11 nM. With `CN1CCN(c2c(NC(=O)c3coc(-c4ccnnc4)n3)ccc(Oc3ccc(F)cc3)c2C(F)(F)F)C[C@@H]1CN` [Example 53] the figure was 29 nM; with `NCCCn1cc(-c2c(NC(=O)c3coc(-c4ccnnc4)n3)ccc(OC3CCC3)c2C(F)(F)F)cn1` [Example 73], 43 nM; with `NC[C@@H]1CCCN(c2c(NC(=O)c3ccn(-c4ccnnc4)n3)ccc(Oc3ccccc3F)c2C(F)(F)F)C1` [Example 34], 3.1 nM. Consider `CN[C@@H]1CCN2CCN(c3c(NC(=O)c4ccn(-c5ccnnc5)n4)ccc(Oc4ccccc4F)c3C(F)(F)F)C[C@@H]12` [Example 78], for which the half-inhibitory concentration (IC50) was determined as 1.3 nM. With `CNC[C@H]1CN(c2c(NC(=O)c3ccn(-c4ccnnc4)n3)ccc(Oc3ccccc3F)c2C2CC2)CCN1C` [Example 104] the figure was 37 nM; with `CNC[C@H]1CN(c2c(NC(=O)c3ccn(-c4ccnnc4)n3)ccc(Oc3ccccc3Cl)c2Cl)CCN1C` [Example 94], 1.4 nM; with `CNC[C@H]1CN(c2c(NC(=O)c3coc(-c4ccnnc4)n3)ccc(Oc3ccccc3F)c2C2CC2)CCN1C` [Example 103], 46 nM.

`CNC[C@H]1CN(c2c(NC(=O)c3coc(-c4ccnnc4)n3)ccc(C3CCCC3)c2C(F)(F)F)CCN1C` [Example 49]: the half-inhibitory concentration (IC50) came to 7.8 nM.

These data come from US20240043403A1, “HETEROARYL CARBOXAMIDE COMPOUND” (Astellas Pharma Inc., priority 2020, published 2024).
